Source: patent US10550124B2, “Atropisomerism for increased kinase inhibitor selectivity” (SAN DIEGO STATE UNIVERSITY RESEARCH FOUNDATION, priority 2015, dated 2020)

Key:
[1] = Experimental measurement of the barriers to rotation (chiral HPLC); assay type: physicochemical; conditions: for Barrier to Rotation: calculated from kobs, Gibbs free energy equation; for Barrier to Rotation kobs: observed rate constant of racemization, in ethanol, heated at constant temperature, in s^-1 (unit assumed)
Experimental: Enantiomerically enriched atropisomeric pyrrolopyrimidine analogues were isolated via chiral HPLC (Daicel Chiralpak IA PN:80335, 3 mL/min, 80:20 or 50:50 hexanes:[…], 25° C.) and evaporated in vacuo. The enantiomerically enriched analogues were then dissolved in ethanol and placed in a sealed 2-dram vial and heated under constant temperature on an aluminum block. At each time point, an aliquot of the mixture was removed and quenched in an HPLC vial containing ice cold 80:20 hexanes:ethanol. Each sample was then injected into the chiral HPLC system (Daicel Chiralpak IA PN:80325, 1 mL/min, 80:20 or 50:50 hexanes:ethanol, 25° C.) and enantiomeric excess (ee) measured. The timepoint and enantiomeric excess (ee) data was then plotted in order to determine an observed rate constant, kobs, at the corresponding temperature. The barrier to rotation was then calculated using the relationship of kracemization=2*kenantiomerization and then substituted into the Gibbs Free Energy Equation:
[formula] where h=Planck Constant, kb=Boltzmann Constant, T=Temp. (K), R=Gas Constant.

Src kinase = Src kinase (Homo sapiens, UniProt P12931); test: Z′-LYTE kinase inhibition assay, Src; assay type: biochemical; conditions: Src; error is standard deviation
Excerpt: Based on the observed stereochemical stabilities, we chose 1f, 2e, and 2f for further study and obtained inhibition data against Src kinase from Life Technologies' Z′-LYTE™ kinase assay (Scheme 3).
All samples were sent out to Life Technologies to obtain kinase inhibition data. A brief description of the assays and analyses are included below.
Assay Theory (SelectScreen® Kinase Profiling Services (Life Technologies, Madison, Wis. USA). The Z′-LYTE® biochemical assay employs a fluorescence-based, coupled-enzyme format and is based on the differential sensitivity of phosphorylated and non-phosphorylated peptides to proteolytic cleavage. The peptide substrate is labeled with two fluorophores one at each end—that make up a FRET pair.
In the primary reaction, the kinase transfers the gamma-phosphate of ATP to a single tyrosine, serine or threonine residue in a synthetic FRET-peptide. In the secondary reaction, a site-specific protease recognizes and cleaves non-phosphorylated FRET-peptides.
Phosphorylation of FRET-peptides suppresses cleavage by the Development Reagent. Cleavage disrupts FRET between the donor (i.e., coumarin) and acceptor (i.e., fluorescein) fluorophores on the FRET-peptide, whereas uncleaved, phosphorylated FRET-peptides maintain FRET. A ratiometric method, which calculates the ratio (the Emission Ratio) of donor emission to acceptor emission after excitation of the donor fluorophore at 400 nm, is used to quantitate reaction progress, as shown in the equation below: […]
A significant benefit of this ratiometric method for quantitating reaction progress is the elimination of well-to-well variations in FRET-peptide concentration and signal intensities. As a result, the assay yields very high Z′-factor values (>0.7) at a low percent phosphorylation. Both cleaved and uncleaved FRET-peptides contribute to the fluorescence signals and therefore to the Emission Ratio. The extent of phosphorylation of the FRET-peptide can be calculated from the Emission Ratio. The Emission Ratio will remain low if the FRET-peptide is phosphorylated (i.e., no kinase inhibition) and will he high if the FRET-peptide is non-phosphorylated (i.e., kinase inhibition).

Sequence of Src kinase (P12931 whole entry): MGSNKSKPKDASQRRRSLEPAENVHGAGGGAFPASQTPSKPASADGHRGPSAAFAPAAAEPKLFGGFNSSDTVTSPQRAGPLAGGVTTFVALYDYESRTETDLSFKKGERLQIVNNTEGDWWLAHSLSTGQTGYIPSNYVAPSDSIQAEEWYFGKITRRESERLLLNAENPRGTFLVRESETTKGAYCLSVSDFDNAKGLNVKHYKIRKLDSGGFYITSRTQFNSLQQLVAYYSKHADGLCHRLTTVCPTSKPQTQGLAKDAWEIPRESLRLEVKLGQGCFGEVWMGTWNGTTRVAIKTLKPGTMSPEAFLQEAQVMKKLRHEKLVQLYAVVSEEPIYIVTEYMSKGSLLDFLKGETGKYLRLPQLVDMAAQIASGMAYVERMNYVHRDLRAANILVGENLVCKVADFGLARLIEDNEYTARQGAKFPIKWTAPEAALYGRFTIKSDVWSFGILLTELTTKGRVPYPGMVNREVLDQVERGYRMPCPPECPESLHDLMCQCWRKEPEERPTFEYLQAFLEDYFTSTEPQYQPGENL

Barrier to Rotation [1] [kcal/mol] | IC50 (Src kinase) [nM] | SMILES | Barrier to Rotation kobs [1]
30.4 | – | COc1ccc(Br)c(-c2c(Cl)n(C(C)(C)C)c3ncnc(N)c23)c1 (racemic) [Compound 2f, 5-(2-bromo-5-methoxyphenyl)-7-(tert-butyl)-6-chloro-7H-pyrrolo[2,3-d]pyrimidin-4-amine] | 2.68E−05
– | > 10000 | COc1ccc(Br)c(-c2c(Cl)n(C3CCCC3)c3ncnc(N)c23)c1 (single isomer, unassigned) [1f-(R), 5-(2-bromo-5-methoxyphenyl)-6-chloro-7-cyclopentyl-7H-pyrrolo[2,3-d]pyrimidin-4-amine] | –
28.6 | – | COc1ccc(Cl)c(-c2c(Cl)n(C(C)(C)C)c3ncnc(N)c23)c1 (racemic) [Compound 2e, 7-(tert-butyl)-6-chloro-5-(2-chloro-5-methoxyphenyl)-7H-pyrrolo[2,3d]pyrimidin-4-amine] | 3.27E−05
29.0 | – | COc1ccc(Br)c(-c2c(Cl)n(C3CCCC3)c3ncnc(N)c23)c1 (racemic) [Compound 1f, 5-(2-bromo-5-methoxyphenyl)-6-chloro-7-cyclopentyl-7H-pyrrolo[2,3-d]pyrimidin-4-amine] | 1.01E−05
27.2 | – | COc1ccc(Cl)c(-c2c(Cl)n(C3CCCC3)c3ncnc(N)c23)c1 [Compound 1e, 6-chloro-5-(2-chloro-5-methoxyphenyl)-7-cyclopentyl-7H-pyrrolo[2,3-d]pyrimidin-4-amine] | 1.24E−04
– | 1300 | COc1ccc(Br)c(-c2c(Cl)n(C3CCCC3)c3ncnc(N)c23)c1 (single isomer, unassigned) [1f-(S), 5-(2-bromo-5-methoxyphenyl)-6-chloro-7-cyclopentyl-7H-pyrrolo[2,3-d]pyrimidin-4-amine] | –
